From ChEMBL document CHEMBL1201862, “PubChem BioAssay data set” (2004)
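These data come from cells grown in 96-well plates and exposed to compound for 48 hours at five concentrations. Here, GI50 denotes the concentration required for 50% inhibition of growth.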 Calls of active or inactive are those of the source. No stated cut-off is given here; in the data, active = GI50 up to about 1.1 µM and inactive = higher.

Assays:
Test in all cases: NCI tumour cell line growth inhibition, 48 h
[1] = system: A549
[2] = system: COLO 205
[3] = system: DU-145
[4] = system: HCT-116
[5] = system: Hs-578T
[6] = system: IGROV-1
[7] = system: K562
[8] = system: MDA-MB-435
[9] = system: MDA-N
[10] = system: MOLT-4
[11] = system: NCI-H23
[12] = system: OVCAR-3
[13] = system: OVCAR-8
[14] = system: PC-3
[15] = system: SF-268
[16] = system: SF-539
[17] = system: SNB-19
[18] = system: SR
[19] = system: TK-10
[20] = system: UACC-257

SMILES | GI50 [1] | GI50 [2] | GI50 [3] | GI50 [4] | GI50 [5] | GI50 [6] | GI50 [7] | GI50 [8] | GI50 [9] | GI50 [10] | GI50 [11] | GI50 [12] | GI50 [13] | GI50 [14] | GI50 [15] | GI50 [16] | GI50 [17] | GI50 [18] | GI50 [19] | GI50 [20]
COc1cc(C2c3cc4c(cc3OC(Nc3ccc(C(=O)O)cc3)C2C)OCO4)cc(OC)c1OC (stereo not given) | 0.373 µM (active) | 0.202 µM (active) | 0.378 µM (active) | 0.31 µM (active) | 1.39 µM (inactive) | 0.618 µM (active) | 0.3 µM (active) | 0.0317 µM (active) | 0.0557 µM (active) | 0.434 µM (active) | 0.454 µM (active) | 0.285 µM (active) | 0.422 µM (active) | 0.253 µM (active) | 0.504 µM (active) | 0.218 µM (active) | 0.472 µM (active) | 0.204 µM (active) | 25.4 µM (inactive) | > 40.3 µM (inactive)
OC1CSc2nc3ccccc3n2C1 (stereo not given) | > 100 µM (inactive) | > 100 µM (inactive) | > 100 µM (inactive) | > 100 µM (inactive) | 23.8 µM (inactive) | > 100 µM (inactive) | > 100 µM (inactive) | > 100 µM (inactive) | > 100 µM (inactive) | > 100 µM (inactive) | > 100 µM (inactive) | > 100 µM (inactive) | > 100 µM (inactive) | > 100 µM (inactive) | > 100 µM (inactive) | > 100 µM (inactive) | > 100 µM (inactive) | > 100 µM (inactive) | > 100 µM (inactive) | > 100 µM (inactive)
CCOP(=O)(Nc1ccc2oc(=O)c3ccccc3c2c1)OCC | 41.9 µM (inactive) | > 100 µM (inactive) | 92.7 µM (inactive) | 66.2 µM (inactive) | 19.8 µM (inactive) | 48 µM (inactive) | 38.1 µM (inactive) | > 100 µM (inactive) | 97.5 µM (inactive) | 54.8 µM (inactive) | > 100 µM (inactive) | 45.2 µM (inactive) | > 100 µM (inactive) | 27.8 µM (inactive) | 56.6 µM (inactive) | > 100 µM (inactive) | 84.1 µM (inactive) | 31.7 µM (inactive) | 49.1 µM (inactive) | > 100 µM (inactive)
CC(C)CC(=O)OC[n+]1cccc(-c2c(COC(=O)NC(C)C)c(COC(=O)NC(C)C)c3n2CCC3)c1 | 79.1 µM (inactive) | 70.3 µM (inactive) | 24.7 µM (inactive) | 44 µM (inactive) | 74.1 µM (inactive) | > 100 µM (inactive) | 51.9 µM (inactive) | > 100 µM (inactive) | > 100 µM (inactive) | 38 µM (inactive) | 31.1 µM (inactive) | > 100 µM (inactive) | 48.8 µM (inactive) | 48.1 µM (inactive) | 29 µM (inactive) | 37.5 µM (inactive) | > 100 µM (inactive) | > 100 µM (inactive) | 63.5 µM (inactive) | > 100 µM (inactive)
COc1ccc(/C(CC2OC(=O)c3ccccc32)=N\NC(N)=O)cc1 (stereo not given) | > 100 µM (inactive) | > 100 µM (inactive) | > 100 µM (inactive) | > 100 µM (inactive) | > 100 µM (inactive) | > 100 µM (inactive) | > 100 µM (inactive) | > 100 µM (inactive) | > 100 µM (inactive) | > 100 µM (inactive) | > 100 µM (inactive) | > 100 µM (inactive) | > 100 µM (inactive) | > 100 µM (inactive) | > 100 µM (inactive) | > 100 µM (inactive) | > 100 µM (inactive) | > 100 µM (inactive) | > 100 µM (inactive) | > 100 µM (inactive)
CC(C)(C)OC(=O)N(O)[C@@H]1CC[C@H](n2cnc3c(N)ncnc32)C1 | > 100 µM (inactive) | > 100 µM (inactive) | > 100 µM (inactive) | > 100 µM (inactive) | > 100 µM (inactive) | 54.5 µM (inactive) | > 100 µM (inactive) | > 100 µM (inactive) | > 100 µM (inactive) | > 100 µM (inactive) | > 100 µM (inactive) | > 100 µM (inactive) | > 100 µM (inactive) | > 100 µM (inactive) | > 100 µM (inactive) | > 100 µM (inactive) | > 100 µM (inactive) | > 100 µM (inactive) | > 100 µM (inactive) | > 100 µM (inactive)
